{"source": "PubChem BioAssay AID226", "about": "(DTP/NCI, 2004)", "tested_on": "B6C3F1 mice, intracerebral ependymoblastoma, median survival T/C", "assay": "NCI In Vivo Anticancer Drug Screen. Data for tumor model Ependymoblastoma (intracerebral) in B6C3F1 mice", "conditions": "endpoint: median survival time, higher = longer survival", "procedure": "The antitumor activity of compounds was measured in mice bearing transplantable tumors. Survival or tumor size were measured and the results are expressed as the measurement made in the treated group (T) divided by the measurement made in the vehicle treated control group (C). The tumor model used in this assay is Ependymoblastoma (intracerebral) in B6C3F1 mice", "note": "“And” between values parts separate entries of the source, which are not always exact repeats. Equal values may be shown once. Toxic doses and inconclusive results are not listed."}
{"compound": "COC(=O)[C@@]12OC[C@]34[C@H]([C@@H](O)[C@@H]1O)[C@@]1(C)CC(=O)C(O)=C(C)[C@@H]1C[C@H]3OC(=O)[C@H](OC(=O)/C=C(\\C)C(C)C)[C@@H]24", "values": [{"measurement": "T/C", "setting": "dose: 0.03 mg/kg/injection, schedule: Q01DX005 (ip), vehicle: saline + alcohol", "value": "100 % of control and 101 % of control"}, {"measurement": "T/C", "setting": "dose: 0.06 mg/kg/injection, schedule: Q01DX005 (ip), vehicle: saline + alcohol", "value": "92 % of control and 97 % of control"}, {"measurement": "T/C", "setting": "dose: 0.12 mg/kg/injection, schedule: Q01DX005 (ip), vehicle: saline + alcohol", "value": "98 % of control and 101 % of control"}, {"measurement": "T/C", "setting": "dose: 0.12 mg/kg/injection, schedule: Q01DX005 (oral), vehicle: saline", "value": "100 % of control"}, {"measurement": "T/C", "setting": "dose: 0.12 mg/kg/injection, schedule: Q12HX006 (ip), vehicle: saline", "value": "109 % of control"}, {"measurement": "T/C", "setting": "dose: 0.25 mg/kg/injection, schedule: Q01DX005 (ip), vehicle: saline + alcohol", "value": "95 % of control and 96 % of control"}, {"measurement": "T/C", "setting": "dose: 0.25 mg/kg/injection, schedule: Q12HX002 (ip), vehicle: saline", "value": "107 % of control"}, {"measurement": "T/C", "setting": "dose: 0.25 mg/kg/injection, schedule: Q12HX006 (ip), vehicle: saline", "value": "116 % of control"}, {"measurement": "T/C", "setting": "dose: 0.5 mg/kg/injection, schedule: Q01DX001 (ip), vehicle: saline", "value": "111 % of control and 115 % of control and 116 % of control"}, {"measurement": "T/C", "setting": "dose: 0.5 mg/kg/injection, schedule: Q01DX005 (ip), vehicle: saline + alcohol", "value": "92 % of control and 95 % of control"}, {"measurement": "T/C", "setting": "dose: 0.5 mg/kg/injection, schedule: Q01DX005 (oral), vehicle: saline", "value": "101 % of control"}, {"measurement": "T/C", "setting": "dose: 0.5 mg/kg/injection, schedule: Q12HX002 (ip), vehicle: saline", "value": "107 % of control"}, {"measurement": "T/C", "setting": "dose: 0.5 mg/kg/injection, schedule: Q12HX006 (ip), vehicle: saline", "value": "116 % of control"}, {"measurement": "T/C", "setting": "dose: 1.0 mg/kg/injection, schedule: Q01DX001 (ip), vehicle: saline", "value": "101 % of control and 110 % of control and 111 % of control"}, {"measurement": "T/C", "setting": "dose: 1.0 mg/kg/injection, schedule: Q01DX005 (ip), vehicle: saline + alcohol", "value": "95 % of control and 100 % of control"}, {"measurement": "T/C", "setting": "dose: 1.0 mg/kg/injection, schedule: Q01DX005 (oral), vehicle: saline", "value": "100 % of control"}, {"measurement": "T/C", "setting": "dose: 1.0 mg/kg/injection, schedule: Q12HX002 (ip), vehicle: saline", "value": "102 % of control"}, {"measurement": "T/C", "setting": "dose: 1.0 mg/kg/injection, schedule: Q12HX006 (ip), vehicle: saline", "value": "119 % of control"}, {"measurement": "T/C", "setting": "dose: 2.0 mg/kg/injection, schedule: Q01DX001 (ip), vehicle: saline", "value": "119 % of control and 123 % of control"}, {"measurement": "T/C", "setting": "dose: 2.0 mg/kg/injection, schedule: Q01DX001 (oral), vehicle: saline", "value": "101 % of control and 109 % of control and 115 % of control"}, {"measurement": "T/C", "setting": "dose: 2.0 mg/kg/injection, schedule: Q01DX005 (ip), vehicle: saline + alcohol", "value": "98 % of control"}, {"measurement": "T/C", "setting": "dose: 2.0 mg/kg/injection, schedule: Q01DX005 (oral), vehicle: saline", "value": "105 % of control"}, {"measurement": "T/C", "setting": "dose: 2.0 mg/kg/injection, schedule: Q12HX002 (ip), vehicle: saline", "value": "110 % of control"}, {"measurement": "T/C", "setting": "dose: 4.0 mg/kg/injection, schedule: Q01DX001 (ip), vehicle: saline", "value": "115 % of control"}, {"measurement": "T/C", "setting": "dose: 4.0 mg/kg/injection, schedule: Q01DX001 (oral), vehicle: saline", "value": "95 % of control and 101 % of control and 123 % of control"}, {"measurement": "T/C", "setting": "dose: 4.0 mg/kg/injection, schedule: Q12HX002 (ip), vehicle: saline", "value": "101 % of control"}, {"measurement": "T/C", "setting": "dose: 8.0 mg/kg/injection, schedule: Q01DX001 (oral), vehicle: saline", "value": "95 % of control and 96 % of control and 108 % of control"}, {"measurement": "T/C", "setting": "dose: 16.0 mg/kg/injection, schedule: Q01DX001 (oral), vehicle: saline", "value": "105 % of control"}]}
{"compound": "CC(=O)OCC1C(=O)OCC1C(=O)N1Cc2cc3ccccc3nc2C1", "note": "(centres undefined)", "values": [{"measurement": "T/C", "setting": "dose: 4.0 mg/kg/injection, schedule: Q01DX005 (ip), vehicle: saline with Tween-80", "value": "99 % of control"}, {"measurement": "T/C", "setting": "dose: 8.0 mg/kg/injection, schedule: Q01DX005 (ip), vehicle: saline with Tween-80", "value": "103 % of control and 104 % of control"}, {"measurement": "T/C", "setting": "dose: 16.0 mg/kg/injection, schedule: Q01DX005 (ip), vehicle: saline with Tween-80", "value": "104 % of control"}, {"measurement": "T/C", "setting": "dose: 32.0 mg/kg/injection, schedule: Q01DX005 (ip), vehicle: saline with Tween-80", "value": "104 % of control"}, {"measurement": "T/C", "setting": "dose: 64.0 mg/kg/injection, schedule: Q01DX005 (ip), vehicle: saline with Tween-80", "value": "90 % of control and 101 % of control"}, {"measurement": "T/C", "setting": "dose: 128.0 mg/kg/injection, schedule: Q01DX005 (ip), vehicle: saline with Tween-80", "value": "90 % of control"}]}
{"compound": "Nc1nc(SCc2ccccc2Cl)c2ncn(C3OC(CO)C(O)C3O)c2n1", "note": "(centres undefined)", "values": [{"measurement": "T/C", "setting": "dose: 12.5 mg/kg/injection, schedule: Q01DX005 (ip), vehicle: Klucel (hydroxypropylcellulose) (HPC)", "value": "103 % of control and 104 % of control"}, {"measurement": "T/C", "setting": "dose: 25.0 mg/kg/injection, schedule: Q01DX005 (ip), vehicle: Klucel (hydroxypropylcellulose) (HPC)", "value": "98 % of control"}, {"measurement": "T/C", "setting": "dose: 50.0 mg/kg/injection, schedule: Q01DX005 (ip), vehicle: Klucel (hydroxypropylcellulose) (HPC)", "value": "110 % of control and 119 % of control"}]}
{"compound": "O=NN(CCCl)C(=O)NC1[C@H](O)CCC[C@@H]1O", "note": "(some centres undefined)", "values": [{"measurement": "T/C", "setting": "dose: 2.59 mg/kg/injection, schedule: Q01DX005 (ip), vehicle: Klucel (hydroxypropylcellulose) (HPC)", "value": "236 % of control"}, {"measurement": "T/C", "setting": "dose: 4.32 mg/kg/injection, schedule: Q01DX001 (ip), vehicle: saline", "value": "115 % of control"}, {"measurement": "T/C", "setting": "dose: 4.32 mg/kg/injection, schedule: Q01DX005 (ip), vehicle: Klucel (hydroxypropylcellulose) (HPC)", "value": "357 % of control"}, {"measurement": "T/C", "setting": "dose: 4.32 mg/kg/injection, schedule: Q01DX005 (ip), vehicle: saline", "value": "281 % of control"}, {"measurement": "T/C", "setting": "dose: 7.2 mg/kg/injection, schedule: Q01DX005 (ip), vehicle: Klucel (hydroxypropylcellulose) (HPC)", "value": "357 % of control"}, {"measurement": "T/C", "setting": "dose: 7.2 mg/kg/injection, schedule: Q01DX005 (ip), vehicle: saline", "value": "281 % of control"}, {"measurement": "T/C", "setting": "dose: 12.0 mg/kg/injection, schedule: Q01DX001 (ip), vehicle: saline", "value": "163 % of control"}, {"measurement": "T/C", "setting": "dose: 12.0 mg/kg/injection, schedule: Q01DX005 (ip), vehicle: Klucel (hydroxypropylcellulose) (HPC)", "value": "88 % of control"}, {"measurement": "T/C", "setting": "dose: 20.0 mg/kg/injection, schedule: Q01DX001 (ip), vehicle: saline", "value": "218 % of control"}]}
{"compound": "Cn1cnc([N+](=O)[O-])c1Sc1nc(N)nc2c1ncn2C1OC(CO)C(O)C1O", "note": "(centres undefined)", "values": [{"measurement": "T/C", "setting": "dose: 6.25 mg/kg/injection, schedule: Q01DX005 (ip), vehicle: suspension in saline", "value": "109 % of control"}, {"measurement": "T/C", "setting": "dose: 12.5 mg/kg/injection, schedule: Q01DX005 (ip), vehicle: suspension in saline", "value": "115 % of control"}, {"measurement": "T/C", "setting": "dose: 25.0 mg/kg/injection, schedule: Q01DX005 (ip), vehicle: suspension in saline", "value": "107 % of control"}]}
